The source made the active and inactive calls. The calls are words filed in the database; no cut-off is given here. Numbered stars: 1 amine (or outer) side, 2 acyl side, 3 side chain; on linkers, the order of the positions; unused ones are H or OH. Bridge positions count the residues as written; N and C are the ends. Square brackets hold non-standard residues; d marks the D form. Peptide text beside a SMILES is read from it. X1 = C[C@](CCCCCC=[*:3])(N[*:1])C(=O)[*:2]; X2 = C[C@@](CCCCC=[*:3])(N[*:1])C(=O)[*:2]; R8 = C=CCCCCCC[C@@](C)(N)C(=O)O; S5 = C=CCCC[C@](C)(N)C(=O)O
System: not listed separately
Assay: Proteolytic stability of the compound assessed as Streptomyces griseus pronase-mediated compound hydrolysis by RP-HPLC method
Type: ADME

Q: With CC[C@H](C)[C@H](NC(=O)[C@H](CCC(=O)O)NC(=O)[C@H](CO)NC(C)=O)C(=O)N[C@H](C(=O)N[C@@H](CCCCN)C(=O)N[C@@H](CCC(N)=O)C(=O)N[C@@H](CCC(=O)O)C(=O)N[C@@H](CCCCN)C(=O)N[C@]1(C)CCCCCC=CCCCC[C@@](C)(C(=O)N[C@@H](Cc2ccc(O)cc2)C(=O)N[C@@H](CS)C(N)=O)NC(=O)[C@H](CCCNC(=N)N)NC(=O)[C@H](Cc2cnc[nH]2)NC(=O)[C@H](CO)NC(=O)[C@H](Cc2c[nH]c3ccccc23)NC(=O)[C@H](CC(C)C)NC(=O)[C@H](Cc2ccccc2)NC1=O)[C@@H](C)O (Ac-SEITKQEK[X1]FLWSHR[X2]YC-NH2; staple 9-16) as the molecule, how does the Stability read?
A: Its Stability is “Stable”.

Q: Which Stability does the source give for CC[C@H](C)[C@H](NC(=O)[C@H](CCC(=O)O)NC(=O)[C@H](CO)NC(C)=O)C(=O)N[C@H](C(=O)N[C@@H](CCCCN)C(=O)N[C@]1(C)CCCCCCC=CCCC[C@@](C)(C(=O)N[C@@H](Cc2cnc[nH]2)C(=O)N[C@@H](CCCNC(=N)N)C(=O)N[C@@H](Cc2cnc[nH]2)C(=O)N[C@@H](Cc2ccc(O)cc2)C(=O)N[C@@H](CS)C(N)=O)NC(=O)[C@H](Cc2c[nH]c3ccccc23)NC(=O)[C@H](CC(C)C)NC(=O)[C@H](Cc2ccccc2)NC(=O)[C@H](CC(=O)O)NC(=O)[C@H](CCCCN)NC(=O)[C@H](CCC(=O)O)NC1=O)[C@@H](C)O (Ac-SEITK[R8]EKDFLW[S5]HRHYC-NH2; staple 6-13) here?
A: Its Stability is “Stable”.

Q: Which Stability does the source give for CC[C@H](C)[C@H](NC(=O)[C@H](CCC(=O)O)NC(=O)[C@H](CO)NC(C)=O)C(=O)N[C@H](C(=O)N[C@@H](CCCCN)C(=O)N[C@@H](CCC(N)=O)C(=O)N[C@@H](CCC(=O)O)C(=O)N[C@@H](CCCCN)C(=O)N[C@@]1(C)CCC/C=C/CCC[C@@](C)(C(=O)N[C@@H](Cc2cnc[nH]2)C(=O)N[C@@H](CCCNC(=N)N)C(=O)N[C@@H](Cc2cnc[nH]2)C(=O)N[C@@H](Cc2ccc(O)cc2)C(=O)N[C@@H](CS)C(N)=O)NC(=O)[C@H](Cc2c[nH]c3ccccc23)NC(=O)[C@H](CC(C)C)NC(=O)[C@H](Cc2ccccc2)NC1=O)[C@@H](C)O (Ac-SEITKQEK[S5]FLW[S5]HRHYC-NH2; staple (E) 9-13) here?
A: Its Stability is “Stable”.

Q: With CC[C@H](C)[C@H](NC(=O)[C@H](CCC(=O)O)NC(C)=O)C(=O)N[C@H](C(=O)N[C@@H](CCCCN)C(=O)N[C@]1(C)CCCCCCC=CCCC[C@@](C)(C(=O)N[C@@H](Cc2cnc[nH]2)C(=O)N[C@@H](CCCNC(=N)N)C(N)=O)NC(=O)[C@H](Cc2c[nH]c3ccccc23)NC(=O)[C@H](CC(C)C)NC(=O)[C@H](Cc2ccccc2)NC(=O)[C@H](CC(=O)O)NC(=O)[C@H](CCCCN)NC(=O)[C@H](CCC(=O)O)NC1=O)[C@@H](C)O (stereo in doubt; form 2) [listing 1 of 2 here] as the molecule, how does the Stability read?
A: The Stability was “Stable”.

Target: RAC-alpha serine/threonine-protein kinase (Homo sapiens) (UniProt P31749)
Assay: Inhibition of p110alpha[E545K]-IRS1 interaction-initiated Akt phosphorylation at Ser473 residue in DLD1 human colon cancer cells at 50 uM by Western blot analysis

Chain of RAC-alpha serine/threonine-protein kinase (Homo sapiens) (P31749 whole entry): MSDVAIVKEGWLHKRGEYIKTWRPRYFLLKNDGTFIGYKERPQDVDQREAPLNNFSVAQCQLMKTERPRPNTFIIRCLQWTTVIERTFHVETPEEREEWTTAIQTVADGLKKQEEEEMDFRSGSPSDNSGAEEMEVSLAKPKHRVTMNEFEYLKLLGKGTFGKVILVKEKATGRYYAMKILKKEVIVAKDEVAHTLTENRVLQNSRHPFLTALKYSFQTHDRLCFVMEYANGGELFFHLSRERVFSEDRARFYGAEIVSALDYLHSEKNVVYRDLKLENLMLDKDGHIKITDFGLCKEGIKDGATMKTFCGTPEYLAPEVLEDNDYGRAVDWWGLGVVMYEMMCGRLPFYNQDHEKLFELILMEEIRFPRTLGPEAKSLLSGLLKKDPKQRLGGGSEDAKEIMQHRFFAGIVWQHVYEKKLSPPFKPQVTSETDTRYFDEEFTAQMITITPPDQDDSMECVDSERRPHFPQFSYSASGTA

Q: With CC[C@H](C)[C@H](NC(=O)[C@H](CCC(=O)O)NC(C)=O)C(=O)N[C@H](C(=O)N[C@@H](CCCCN)C(=O)N[C@]1(C)CCCCCCC=CCCC[C@@](C)(C(=O)N[C@@H](Cc2cnc[nH]2)C(=O)N[C@@H](CCCNC(=N)N)C(N)=O)NC(=O)[C@H](Cc2c[nH]c3ccccc23)NC(=O)[C@H](CC(C)C)NC(=O)[C@H](Cc2ccccc2)NC(=O)[C@H](CC(=O)O)NC(=O)[C@H](CCCCN)NC(=O)[C@H](CCC(=O)O)NC1=O)[C@@H](C)O (stereo in doubt; form 1) as the molecule, how does the inhibition read?
A: Its inhibition is “Active”.

Q: For CC[C@H](C)[C@H](NC(=O)[C@H](CCC(=O)O)NC(=O)[C@H](CO)NC(C)=O)C(=O)N[C@H](C(=O)N[C@@H](CCCCN)C(=O)N[C@@H](CCC(N)=O)C(=O)N[C@@H](CCC(=O)O)C(=O)N[C@@H](CCCCN)C(=O)N[C@@]1(C)CCC/C=C/CCC[C@@](C)(C(=O)N[C@@H](Cc2cnc[nH]2)C(=O)N[C@@H](CCCNC(=N)N)C(=O)N[C@@H](Cc2cnc[nH]2)C(=O)N[C@@H](Cc2ccc(O)cc2)C(=O)N[C@@H](CS)C(N)=O)NC(=O)[C@H](Cc2c[nH]c3ccccc23)NC(=O)[C@H](CC(C)C)NC(=O)[C@H](Cc2ccccc2)NC1=O)[C@@H](C)O (Ac-SEITKQEK[S5]FLW[S5]HRHYC-NH2; staple (E) 9-13), which inhibition is on record?
A: Its inhibition is “Active”.

Q: With CC[C@H](C)[C@H](NC(=O)[C@H](CCC(=O)O)NC(C)=O)C(=O)N[C@H](C(=O)N[C@@H](CCCCN)C(=O)N[C@]1(C)CCCCCCC=CCCC[C@@](C)(C(=O)N[C@@H](Cc2cnc[nH]2)C(=O)N[C@@H](CCCNC(=N)N)C(N)=O)NC(=O)[C@H](Cc2c[nH]c3ccccc23)NC(=O)[C@H](CC(C)C)NC(=O)[C@H](Cc2ccccc2)NC(=O)[C@H](CC(=O)O)NC(=O)[C@H](CCCCN)NC(=O)[C@H](CCC(=O)O)NC1=O)[C@@H](C)O (stereo in doubt; form 2) [listing 2 of 2 here] as the molecule, how does the inhibition read?
A: Its inhibition is “Active”.
